Laboratory results reported in PubChem BioAssay AID2060606 (Molecular Pharmacology Branch, DTP, NCI, 2025).
Values belong to the molecule of their own block, whether it stands above or below them.

Test system: 922993-354-T-J3-PDC complex spheroids, viability, % test/control
Test: Anticancer human tumor 922993-354-T-J3-PDC patient-derived endometrial carcinoma cell line growth inhibition [CLK]
Conditions: for IC50: curve of first compound; for viability, T/C: stronger effect = lower value
Procedure, shortened: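 Patient-derived tumor cells grown as complex spheroids with HUVEC endothelial cells and mesenchymal stem cells, treated with drug combinations. Concentrations descend in half-log steps from near clinical Cmax, or from 10 microM if Cmax unknown.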

[1] = second compound 0.0316 µM, first compound 0.0316 µM
[2] = second compound 0.0316 µM, first compound 0.1 µM
[3] = second compound 0.0316 µM, first compound 0.316 µM
[4] = second compound 0.0316 µM, first compound 1 µM
[5] = second compound 0.0316 µM, first compound 3.16 µM
[6] = second compound 0.0316 µM, first compound 10 µM
[7] = second compound 0.1 µM, first compound 0.0316 µM
[8] = second compound 0.1 µM, first compound 0.1 µM
[9] = second compound 0.1 µM, first compound 0.316 µM
[10] = second compound 0.1 µM, first compound 1 µM
[11] = second compound 0.1 µM, first compound 3.16 µM
[12] = second compound 0.1 µM, first compound 10 µM
[13] = second compound 0.316 µM, first compound 0.0316 µM
[14] = second compound 0.316 µM, first compound 0.1 µM
[15] = second compound 0.316 µM, first compound 0.316 µM
[16] = second compound 0.316 µM, first compound 1 µM
[17] = second compound 0.316 µM, first compound 3.16 µM
[18] = second compound 0.316 µM, first compound 10 µM
[19] = second compound 1 µM, first compound 0.0316 µM
[20] = second compound 1 µM, first compound 0.1 µM
[21] = second compound 1 µM, first compound 0.316 µM
[22] = second compound 1 µM, first compound 1 µM
[23] = second compound 1 µM, first compound 3.16 µM
[24] = second compound 1 µM, first compound 10 µM
[25] = second compound 3.16 µM, first compound 0.0316 µM
[26] = second compound 3.16 µM, first compound 0.1 µM
[27] = second compound 3.16 µM, first compound 0.316 µM
[28] = second compound 3.16 µM, first compound 1 µM
[29] = second compound 3.16 µM, first compound 3.16 µM
[30] = second compound 3.16 µM, first compound 10 µM
[31] = second compound 10 µM, first compound 0.0316 µM
[32] = second compound 10 µM, first compound 0.1 µM
[33] = second compound 10 µM, first compound 0.316 µM
[34] = second compound 10 µM, first compound 1 µM
[35] = second compound 10 µM, first compound 3.16 µM
[36] = second compound 10 µM, first compound 10 µM
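Further: spheroids exposed to the agents for 7 days before readout.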

IC50 (second compound 0.0316 µM): > 10000 nM
IC50 (second compound 0.1 µM): > 10000 nM
IC50 (second compound 0.316 µM): > 10000 nM
IC50 (second compound 1 µM): < 31.6 nM
IC50 (second compound 3.16 µM): < 31.6 nM
IC50 (second compound 10 µM): < 31.6 nM
Compound: CC(=O)O[C@H]1C(=O)[C@@]2(C)[C@H]([C@H](OC(=O)c3ccccc3)[C@]3(O)C[C@H](OC(=O)[C@H](O)[C@@H](NC(=O)c4ccccc4)c4ccccc4)C(C)=C1C3(C)C)[C@]1(OC(C)=O)CO[C@@H]1C[C@@H]2O + CNC(=O)c1ccc(Nc2nc(OC3CCCC3)c3c(-c4ccc5nc(C)oc5c4)c[nH]c3n2)c(OC)c1
viability, T/C [1]: 113%
viability, T/C [2]: 104%
viability, T/C [3]: 99.3%
viability, T/C [4]: 99.2%
viability, T/C [5]: 69.3%
viability, T/C [6]: 51%
viability, T/C [7]: 101%
viability, T/C [8]: 92.1%
viability, T/C [9]: 104%
viability, T/C [10]: 77.1%
viability, T/C [11]: 61.2%
viability, T/C [12]: 51.8%
viability, T/C [13]: 60.2%
viability, T/C [14]: 59%
viability, T/C [15]: 66.8%
viability, T/C [16]: 73.2%
viability, T/C [17]: 79.7%
viability, T/C [18]: 68.1%
viability, T/C [19]: 42.6%
viability, T/C [20]: 46%
viability, T/C [21]: 44.7%
viability, T/C [22]: 45.9%
viability, T/C [23]: 51.1%
viability, T/C [24]: 47.1%
viability, T/C [25]: 34.6%
viability, T/C [26]: 41.4%
viability, T/C [27]: 35.8%
viability, T/C [28]: 44.3%
viability, T/C [29]: 42.6%
viability, T/C [30]: 39.9%
viability, T/C [31]: 35.4%
viability, T/C [32]: 39.2%
viability, T/C [33]: 40.2%
viability, T/C [34]: 37.4%
viability, T/C [35]: 44.9%
viability, T/C [36]: 36.1%

IC50 (second compound 0.0316 µM): > 10000 nM
IC50 (second compound 0.1 µM): > 10000 nM
IC50 (second compound 0.316 µM): > 10000 nM
IC50 (second compound 1 µM): < 31.6 nM
IC50 (second compound 3.16 µM): < 31.6 nM
IC50 (second compound 10 µM): < 31.6 nM
Compound: COc1ccc([C@@H](O)c2cc(-c3ncnc4cc(N5CCOCC5)ccc34)c(F)cc2Cl)nn1 + CNC(=O)c1ccc(Nc2nc(OC3CCCC3)c3c(-c4ccc5nc(C)oc5c4)c[nH]c3n2)c(OC)c1
viability, T/C [1]: 113%
viability, T/C [2]: 112%
viability, T/C [3]: 130%
viability, T/C [4]: 121%
viability, T/C [5]: 113%
viability, T/C [6]: 91.2%
viability, T/C [7]: 104%
viability, T/C [8]: 110%
viability, T/C [9]: 99.7%
viability, T/C [10]: 125%
viability, T/C [11]: 104%
viability, T/C [12]: 92.5%
viability, T/C [13]: 64.3%
viability, T/C [14]: 64.5%
viability, T/C [15]: 66.6%
viability, T/C [16]: 67.8%
viability, T/C [17]: 87.1%
viability, T/C [18]: 71.9%
viability, T/C [19]: 39.3%
viability, T/C [20]: 40.6%
viability, T/C [21]: 40%
viability, T/C [22]: 40.9%
viability, T/C [23]: 52.1%
viability, T/C [24]: 56.8%
viability, T/C [25]: 31.8%
viability, T/C [26]: 28.8%
viability, T/C [27]: 34.8%
viability, T/C [28]: 41.2%
viability, T/C [29]: 45.8%
viability, T/C [30]: 41%
viability, T/C [31]: 34%
viability, T/C [32]: 30.6%
viability, T/C [33]: 41.6%
viability, T/C [34]: 33.8%
viability, T/C [35]: 44.2%
viability, T/C [36]: 37.1%

IC50 (second compound 0.0316 µM): 3130 nM
IC50 (second compound 0.1 µM): 3770 nM
IC50 (second compound 0.316 µM): 1890 nM
IC50 (second compound 1 µM): < 31.6 nM
IC50 (second compound 3.16 µM): < 31.6 nM
IC50 (second compound 10 µM): < 31.6 nM
Compound: COc1cccc2c1C(=O)c1c(O)c3c(c(O)c1C2=O)CC(O)(C(=O)CO)CC3OC1CC(N)C(O)C(C)O1 (stereo unspecified) + CNC(=O)c1ccc(Nc2nc(OC3CCCC3)c3c(-c4ccc5nc(C)oc5c4)c[nH]c3n2)c(OC)c1
viability, T/C [1]: 101%
viability, T/C [2]: 116%
viability, T/C [3]: 102%
viability, T/C [4]: 78%
viability, T/C [5]: 52.3%
viability, T/C [6]: 22.1%
viability, T/C [7]: 122%
viability, T/C [8]: 123%
viability, T/C [9]: 108%
viability, T/C [10]: 85.7%
viability, T/C [11]: 57%
viability, T/C [12]: 18.7%
viability, T/C [13]: 77%
viability, T/C [14]: 63%
viability, T/C [15]: 66.6%
viability, T/C [16]: 71.3%
viability, T/C [17]: 34.3%
viability, T/C [18]: 17.5%
viability, T/C [19]: 43.1%
viability, T/C [20]: 44.3%
viability, T/C [21]: 22.2%
viability, T/C [22]: 23.5%
viability, T/C [23]: 25.9%
viability, T/C [24]: 3.3%
viability, T/C [25]: 36.8%
viability, T/C [26]: 21.1%
viability, T/C [27]: 18.2%
viability, T/C [28]: 21.7%
viability, T/C [29]: 10.2%
viability, T/C [30]: 0.97%
viability, T/C [31]: 27.5%
viability, T/C [32]: 12.8%
viability, T/C [33]: 16.8%
viability, T/C [34]: 24.5%
viability, T/C [35]: 3.31%
viability, T/C [36]: 1.92%
